Results from patent US9937183B2, “Antimicrobial compounds and methods of making and using the same” (priority 2013, dated 2018).
≈ marks a conversion by molar mass, not a printed value. Read-outs that look alike come from different tables or passages of the source.

How the values were obtained:
Format in all cases: cell-based
B. pseudomallei = test: microbe, parasite or virus in culture; conditions: Burkholderia pseudomallei; for MIC50: read-out: B. pseudomallei MIC50; for MIC90: read-out: B. pseudomallei MIC90; for MIC: read-out: B. pseudomallei MIC Range
E. coli MG1655 parent = test: MIC, microtiter-based liquid assay (CLSI); conditions: Escherichia coli
Y. pestis = test: microbe, parasite or virus in culture; conditions: Yersinia pestis; for MIC50: read-out: Y. pestis MIC50; for MIC90: read-out: Y. pestis MIC90; for MIC: read-out: Y. pestis MIC Range
P. aeruginosa 1705886 = test: MIC, microtiter-based liquid assay (CLSI); conditions: Pseudomonas aeruginosa
B. anthracis = test: microbe, parasite or virus in culture; conditions: Bacillus anthracis; for MIC50: read-out: B. anthracis MIC50; for MIC90: read-out: B. anthracis MIC90; for MIC: read-out: B. anthracis MIC Range
A. baumannii 1705943 = test: MIC, microtiter-based liquid assay (CLSI); conditions: Acinetobacter baumannii
[1] = test system: E. faecium A6349 VanA + LNZ-R; test: MIC, microtiter-based liquid assay (CLSI); conditions: Enterococcus faecium
K. pneumoniae 1705966 = test: MIC, microtiter-based liquid assay (CLSI); conditions: Klebsiella pneumoniae
K. pneumoniae 1705949 = test: MIC, microtiter-based liquid assay (CLSI); conditions: Klebsiella pneumoniae, MDR strain
E. coli ATCC25922 = test: MIC, microtiter-based liquid assay (CLSI); conditions: Escherichia coli
[2] = test system: S. pneumoniae 02J1175 Mef(A); test: MIC, microtiter-based liquid assay (CLSI); conditions: Streptococcus pneumoniae
A. baumannii 1705936 = test: MIC, microtiter-based liquid assay (CLSI); conditions: Acinetobacter baumannii, MDR strain
F. tularensis = test: microbe, parasite or virus in culture; conditions: Francisella tularensis; for MIC50: read-out: F. tularensis MIC50; for MIC90: read-out: F. tularensis MIC90; for MIC: read-out: F. tularensis MIC Range
P. aeruginosa ATCC27853 = test: MIC, microtiter-based liquid assay (CLSI); conditions: Pseudomonas aeruginosa
P. aeruginosa 1705904 = test: MIC, microtiter-based liquid assay (CLSI); conditions: Pseudomonas aeruginosa, MDR strain
B. mallei = test: microbe, parasite or virus in culture; conditions: Burkholderia mallei; for MIC50: read-out: B. mallei MIC50; for MIC90: read-out: B. mallei MIC90; for MIC: read-out: B. mallei MIC Range
E. coli 1705878 = test: MIC, microtiter-based liquid assay (CLSI); conditions: Escherichia coli, MDR strain
E. coli CAG12184 TolC = test: MIC, microtiter-based liquid assay (CLSI); conditions: Escherichia coli, CAG12184TOLC
S. aureus 11540 MRSA = test: MIC, microtiter-based liquid assay (CLSI); conditions: Staphylococcus aureus
[3] = ATCC25922, read-out: MIC E. coli ATCC25922 + 50% HS
[4] = ATCC25922, read-out: MIC E. coli ATCC25922

| SMILES | MIC50 (B. pseudomallei) | MIC90 (B. pseudomallei) | MIC (E. coli MG1655 parent) | MIC50 (Y. pestis) | MIC90 (Y. pestis) | MIC (P. aeruginosa 1705886) | MIC50 (B. anthracis) | MIC90 (B. anthracis) | MIC (B. anthracis) | MIC (A. baumannii 1705943) | MIC [1] | MIC (K. pneumoniae 1705966) | MIC (K. pneumoniae 1705949) | MIC (E. coli ATCC25922; [3]) | MIC (E. coli ATCC25922; [4]) | MIC [2] | MIC (A. baumannii 1705936) | MIC50 (F. tularensis) | MIC90 (F. tularensis) | MIC (F. tularensis) | other results |
| --- | --- | --- | --- | --- | --- | --- | --- | --- | --- | --- | --- | --- | --- | --- | --- | --- | --- | --- | --- | --- | --- |
| C[C@H](NCCCNC(=N)N)c1ccc(-n2cc3cc(-c4cc(CCC[C@@H](N)CF)cc(Cl)c4F)[nH]c3nc2=O)cc1 [Compound 17] | 8 µg/mL (≈ 13.7 µM) | 16 µg/mL (≈ 27.3 µM) | 1 µg/mL (≈ 1.71 µM) | 0.25 µg/mL (≈ 0.427 µM) | 0.5 µg/mL (≈ 0.855 µM) | 4 µg/mL (≈ 6.84 µM) | 0.25 µg/mL (≈ 0.427 µM) | 0.25 µg/mL (≈ 0.427 µM) | 0.03 to 0.5 µg/mL (≈ 0.0513 to 0.855 µM) | 0.25 µg/mL (≈ 0.427 µM) | 0.5 µg/mL | 0.125 µg/mL (≈ 0.214 µM) | 1 µg/mL (≈ 1.71 µM) | 0.5 µg/mL | 0.25 µg/mL (≈ 0.427 µM) | 0.125 µg/mL (≈ 0.214 µM) | 1 µg/mL (≈ 1.71 µM) | ≤ 0.03 µg/mL | 0.12 µg/mL (≈ 0.205 µM) | 0.03 to 1 µg/mL (≈ 0.0513 to 1.71 µM) | MIC (B. pseudomallei): 1 to 16 µg/mL (≈ 1.71 to 27.3 µM); MIC (Y. pestis): 0.03 to 0.5 µg/mL (≈ 0.0513 to 0.855 µM); MIC (P. aeruginosa ATCC27853): 8 µg/mL (≈ 13.7 µM); MIC (P. aeruginosa 1705904): 8 µg/mL (≈ 13.7 µM); MIC50 (B. mallei): 0.06 µg/mL (≈ 0.103 µM); MIC90 (B. mallei): 0.25 µg/mL (≈ 0.427 µM); MIC (B. mallei): 0.03 to 0.25 µg/mL (≈ 0.0513 to 0.427 µM); MIC (E. coli 1705878): 2 µg/mL (≈ 3.42 µM); MIC (E. coli CAG12184 TolC): 0.125 µg/mL (≈ 0.214 µM); MIC (S. aureus 11540 MRSA): 0.25 µg/mL (≈ 0.427 µM) |
| C[C@H](N)CCCc1cc(Cl)c(F)c(-c2cc3cn(-c4ccc([C@H](CCNc5nccs5)NCCCNC(=N)N)cc4)c(=O)nc3[nH]2)c1 [Compound 15] | 8 µg/mL (≈ 11.8 µM) | 16 µg/mL (≈ 23.6 µM) | 1 µg/mL (≈ 1.47 µM) | 0.5 µg/mL (≈ 0.736 µM) | 1 µg/mL (≈ 1.47 µM) | 4 µg/mL (≈ 5.89 µM) | 0.12 µg/mL (≈ 0.177 µM) | 0.12 µg/mL (≈ 0.177 µM) | 0.03 to 0.25 µg/mL (≈ 0.0442 to 0.368 µM) | 0.5 µg/mL (≈ 0.736 µM) | 2 µg/mL | 0.25 µg/mL (≈ 0.368 µM) | 1 µg/mL (≈ 1.47 µM) | 0.5 µg/mL | 0.5 µg/mL (≈ 0.736 µM) | 0.25 µg/mL (≈ 0.368 µM) | 1 µg/mL (≈ 1.47 µM) | 0.06 µg/mL (≈ 0.0883 µM) | 0.25 µg/mL (≈ 0.368 µM) | 0.03 to 2 µg/mL (≈ 0.0442 to 2.94 µM) | MIC (B. pseudomallei): 4 to 32 µg/mL (≈ 5.89 to 47.1 µM); MIC (Y. pestis): 0.06 to 1 µg/mL (≈ 0.0883 to 1.47 µM); MIC (P. aeruginosa ATCC27853): 8 µg/mL (≈ 11.8 µM); MIC (P. aeruginosa 1705904): 8 µg/mL (≈ 11.8 µM); MIC50 (B. mallei): 0.06 µg/mL (≈ 0.0883 µM); MIC90 (B. mallei): 0.25 µg/mL (≈ 0.368 µM); MIC (B. mallei): 0.03 to 0.5 µg/mL (≈ 0.0442 to 0.736 µM); MIC (E. coli 1705878): 2 µg/mL (≈ 2.94 µM); MIC (E. coli CAG12184 TolC): 0.25 µg/mL (≈ 0.368 µM); MIC (S. aureus 11540 MRSA): 0.5 µg/mL (≈ 0.736 µM) |
| C[C@H](NCCCNC(=N)N)c1ccc(-n2cc3cc(-c4cc(CCC[C@@H](N)CO)cc(Cl)c4F)[nH]c3nc2=O)cc1 [Compound 5] | 16 µg/mL (≈ 27.4 µM) | 16 µg/mL (≈ 27.4 µM) | 0.5 µg/mL (≈ 0.857 µM) | 0.25 µg/mL (≈ 0.429 µM) | 0.5 µg/mL (≈ 0.857 µM) | 4 µg/mL (≈ 6.86 µM) | 0.12 µg/mL (≈ 0.206 µM) | 0.12 µg/mL (≈ 0.206 µM) | 0.03 to 2 µg/mL (≈ 0.0514 to 3.43 µM) | 0.25 µg/mL (≈ 0.429 µM) | 1 µg/mL | 0.125 µg/mL (≈ 0.214 µM) | 0.5 µg/mL (≈ 0.857 µM) | 0.25 µg/mL | 0.125 µg/mL (≈ 0.214 µM) | 0.125 µg/mL (≈ 0.214 µM) | 2 µg/mL (≈ 3.43 µM) | ≤ 0.03 µg/mL | ≤ 0.03 µg/mL | 0.03 to 0.25 µg/mL (≈ 0.0514 to 0.429 µM) | MIC (Y. pestis): 0.03 to 2 µg/mL (≈ 0.0514 to 3.43 µM); MIC (P. aeruginosa ATCC27853): 4 µg/mL (≈ 6.86 µM); MIC (P. aeruginosa 1705904): 8 µg/mL (≈ 13.7 µM); MIC50 (B. mallei): 0.06 µg/mL (≈ 0.103 µM); MIC90 (B. mallei): 0.25 µg/mL (≈ 0.429 µM); MIC (B. mallei): 0.03 to 0.5 µg/mL (≈ 0.0514 to 0.857 µM); MIC (E. coli 1705878): 2 µg/mL (≈ 3.43 µM); MIC (E. coli CAG12184 TolC): 0.06 µg/mL (≈ 0.103 µM); MIC (S. aureus 11540 MRSA): 0.125 µg/mL (≈ 0.214 µM) |
| C[C@H](N)CCCc1cc(Cl)c(F)c(-c2cc3cn(-c4ccc([C@H](N)CCCCNC(=N)N)cc4)c(=O)nc3[nH]2)c1 [Compound 16] | 4 µg/mL (≈ 7.05 µM) | 8 µg/mL (≈ 14.1 µM) | 0.25 µg/mL (≈ 0.441 µM) | 0.12 µg/mL (≈ 0.212 µM) | 0.25 µg/mL (≈ 0.441 µM) | 4 µg/mL (≈ 7.05 µM) | ≤ 0.03 µg/mL | 0.06 µg/mL (≈ 0.106 µM) | 0.03 to 0.12 µg/mL (≈ 0.0529 to 0.212 µM) | 0.125 µg/mL (≈ 0.22 µM) | 2 µg/mL | 0.25 µg/mL (≈ 0.441 µM) | 2 µg/mL (≈ 3.53 µM) | 0.125 µg/mL | 0.125 µg/mL (≈ 0.22 µM) | 0.25 µg/mL (≈ 0.441 µM) | 2 µg/mL (≈ 3.53 µM) | ≤ 0.03 µg/mL | 0.12 µg/mL (≈ 0.212 µM) | 0.03 to 1 µg/mL (≈ 0.0529 to 1.76 µM) | MIC (B. pseudomallei): 2 to 16 µg/mL (≈ 3.53 to 28.2 µM); MIC (Y. pestis): 0.03 to 0.5 µg/mL (≈ 0.0529 to 0.882 µM); MIC (P. aeruginosa ATCC27853): 4 µg/mL (≈ 7.05 µM); MIC (P. aeruginosa 1705904): 8 µg/mL (≈ 14.1 µM); MIC50 (B. mallei): ≤ 0.03 µg/mL; MIC90 (B. mallei): 0.06 µg/mL (≈ 0.106 µM); MIC (B. mallei): 0.03 to 0.06 µg/mL (≈ 0.0529 to 0.106 µM); MIC (E. coli 1705878): 0.5 µg/mL (≈ 0.882 µM); MIC (E. coli CAG12184 TolC): 0.06 µg/mL (≈ 0.106 µM); MIC (S. aureus 11540 MRSA): 0.25 µg/mL (≈ 0.441 µM) |
| COC[C@H](N)CCCc1cc(Cl)c(F)c(-c2cc3cn(-c4ccc(CNCCCNC(=N)N)cc4)c(=O)nc3[nH]2)c1 [Compound 6] | 8 µg/mL (≈ 13.7 µM) | 16 µg/mL (≈ 27.4 µM) | 0.25 µg/mL (≈ 0.429 µM) | 0.25 µg/mL (≈ 0.429 µM) | > 16 µg/mL | 4 µg/mL (≈ 6.86 µM) | 0.5 µg/mL (≈ 0.857 µM) | 0.5 µg/mL (≈ 0.857 µM) | 0.06 to 1 µg/mL (≈ 0.103 to 1.71 µM) | 0.25 µg/mL (≈ 0.429 µM) | 4 µg/mL | 0.5 µg/mL (≈ 0.857 µM) | 2 µg/mL (≈ 3.43 µM) | 0.25 µg/mL | 0.5 µg/mL (≈ 0.857 µM) | 0.25 µg/mL (≈ 0.429 µM) | 4 µg/mL (≈ 6.86 µM) | ≤ 0.03 µg/mL | 0.06 µg/mL (≈ 0.103 µM) | 0.03 to 1 µg/mL (≈ 0.0514 to 1.71 µM) | MIC (B. pseudomallei): 1 to 32 µg/mL (≈ 1.71 to 54.9 µM); MIC (P. aeruginosa ATCC27853): 8 µg/mL (≈ 13.7 µM); MIC (P. aeruginosa 1705904): 8 µg/mL (≈ 13.7 µM); MIC50 (B. mallei): ≤ 0.03 µg/mL; MIC90 (B. mallei): 0.12 µg/mL (≈ 0.206 µM); MIC (B. mallei): 0.03 to 0.5 µg/mL (≈ 0.0514 to 0.857 µM); MIC (E. coli 1705878): 1 µg/mL (≈ 1.71 µM); MIC (E. coli CAG12184 TolC): 0.25 µg/mL (≈ 0.429 µM); MIC (S. aureus 11540 MRSA): 0.25 µg/mL (≈ 0.429 µM) |
